Experiments:
[1] = system: human bone marrow CD34+ cells (committed progenitor cells); assay: 2 week semi-solid (methylcellulose) colony (CFU) assay; format: cell-based
Excerpt: Hematopoiesis is sustained by a pool of hematopoietic stem cells (HSCs) that can self-renew and differentiate into hematopoietic progenitor cells (HPCs). HPCs are committed to specific lineages which can be identified based on their colony morphology when grown in semi-solid media in vitro, typically over a 2 week period. The colonies grown in the semi-solid colony assay are functionally defined as colony- or burst-forming units and include BFU-E and CFU-E (cells committed to the erythroid lineage), CFU-GM (cells committed to the granulocytic/monocytic lineage), BFU-MK and CFU-MK (cells committed to the megakaryocyte lineage) and CFU-GEMM (multipotent progenitors).

[2] = system: human bone marrow stromal cells; assay: Production of G-CSF by human bone marrow stromal cells; format: cell-based; settings: 10^−5 M PT-100, culture media collected on day 1
Experimental: Mononuclear cells were purified from bone marrow and cultured long-term culture medium, (Stem Cell Technologies, Inc., Vancouver, B.C.) for 2 weeks, with a single feeding of fresh medium after 1 week. […] Culture media were collected on day 1. Supernatants were assayed for human G-CSF using a Quantikine high sensitivity immuno-assay kit (R+D Systems, Minneapolis, Minn.).

BALB/c mice = assay: Stimulation of hematopoiesis in the spleen of normal mice (splenocyte colony assay); format: in vivo; settings: twice daily for 5 days, subcutaneous injection or oral gavage
Experimental: On the sixth day the animals were sacrificed and their spleens were excised using sterile procedures. The spleens were disrupted to produce single cell suspensions which were subsequently treated with a solution of Tris ammonium chloride (pH 7.2) to lyse erythrocytes. The resulting splenocyte populations were in a hemocytometer and resuspended at […] in Iscove's Modified Eagles medium (IMDM) supplemented with 2% heat inactivated fetal calf serum. 0.3 mL of each splenocyte solution was added to 3 mL of Methocult™GF M3434 (Stem Cell Technologies, Vancouver, BC, Canada), a methylcellulose medium containing recombinant cytokines used for colony assays of murine progenitor cells. The medium was vigorously mixed and then 1.1 mL of the mixture was placed in duplicate onto sterile 35 mm diameter culture dishes, resulting in 5×10^5 splenocytes/plate. The plated cells were incubated at 37° C. under humidified conditions in 95% air/5% CO2 for 7 days. CFU-E were enumerated as per the manufacturers specifications after 2 days, while BFU-E, CFU-GM and CFU-GEMM were enumerated after 7 days. For each mouse, the absolute CFU/spleen were calculated using the total splenocyte count determined in the hemocytometer. The data shown in FIG. 9 represents the mean±SD CFU/spleen from 3 mice in each dosing group.

[3] = system: cyclophosphamide treated mice; assay: Regeneration of neutrophils in cyclophosphamide-treated mice; format: in vivo; settings: for neutrophil recovery versus saline treated mice: 5 days; for ANC after treatment was stopped: count on Day 13; for Day on which normal levels of absolute neutrophil counts (ANC) were reached: saline treated mice Day 7
Experimental: In these studies, mice were injected intraperitoneally with a sublethal dose of 220 mg/kg cyclophosphamide (Day 1). […] After 72 hours (Day 3) mice were divided into 3 groups. […] G-CSF was used at 0.04 ug/dose (4 μg/kg/day) which is the dose frequently used in published reports studying the G-CSF effects in mice and is also the equivalent dose used in cancer patients. All administrations were performed twice daily (b.i.d.) for 5 consecutive days or as indicated. Blood samples were taken from individual mice on Day 4–8, and in some experiments on Days 13 or 17. At each time pont four or five test animals were sampled. Total and differential white blood cell counts of Gimsa-stained blood smears were performed.

[4] = system: human CD34+ cells (primitive hematopoietic progenitor cells) on stromal cell layer; assay: Long-Term Culture (LTC) assay followed by semi-solid colony assay; format: cell-based
Excerpt: An assay to evaluate the effect of a compound or of growth factors on PHPCs was first described by Dexter (Dexter T. M. et al, J. Cell. Physiol. 91:335–344 (1977)), and combines the Long-Term Culture (LTC) with the semi-solid colony assay. LTC is initiated over a pre-formed stromal cell layer which provides the necessary hematopoietic growth factors. It has been used extensively for the in vitro examination of murine and human hematopoiesis and to evaluate the ability of test compounds to generate LTC-ICs.
For the LTC assays, CD34^+ cells were isolated by positive selection from human bone marrow cells, apheresed peripheral blood or umbilical cord blood using a MAC separation system. To establish a stromal feeder layer, human bone marrow cells were cultured in Myelocult long term culture medium for 2 weeks. […] Medium and PT-100 was exchanged every three days thereafter. At the end of the culture period the culture was assayed for progenitor cells by plating in semi-solid medium (methylcellulose) supplemented with growth factors (Stem Cell Factor, GM-CSF, IL-3 and Erythropoietin).
The total number of myeloid, erythroid, blast forming and multilineage clonogeneic progenitors (colonies CFU-GM, CFU-E, BFU-E and CFU-GEMM, respectively) were determined after 14 days in methylcellulose culture.

[5] = system: human CD34+ cells (primitive hematopoietic progenitor cells) on stromal cell layer; settings: cited from earlier work
[6] = system: human bone marrow CD34+ cells (committed progenitor cells); settings: stated as previously shown; cited from earlier work

Molecule: CC(C)[C@H](N)C(=O)N1CCC[C@H]1B(O)O [PT-100, valine-prolineboronic acid]
- differentiation of committed progenitor cells (CFU-E, CFU-GM, CFU-GEMM, BFU-E colonies) ([1]; human bone marrow CD34+ cells, 4 h pre-incubation, 14 days in methylcellulose with sub-optimal growth factors): did not stimulate differentiation
- generation of CFUs in the 2 week semi-solid assay ([1]; human bone marrow, apheresed peripheral blood or umbilical cord blood cells): did not stimulate the generation of CFUs
- production of G-CSF by cultured stromal cells [2]: stimulates production of G-CSF
- hematopoiesis in spleen (CFU/spleen: CFU-E, BFU-E, CFU-GM, CFU-GEMM) (BALB/c mice): stimulated hematopoiesis for all progenitor colony types tested
- neutrophil recovery over saline ([3]; 0.1 μg/b.i.d. oral gavage, 5 consecutive days from Day 3): did not significantly enhance neutrophil recovery over saline
- neutrophil recovery versus saline treated mice ([3]; 1 μg/b.i.d. s.c.): did not show much effect
- ANC after treatment was stopped ([3]; 2 μg/b.i.d. by gavage for 5 days): decreased to normal counts by Day 13
- neutrophil regeneration during the treatment period, PT-100 versus G-CSF ([3]; 2 μg/b.i.d. by gavage, 5 consecutive days from Day 3): stimulated neutrophil regeneration to a similar level
- Day on which normal levels of absolute neutrophil counts (ANC) were reached ([3]; 2 μg/b.i.d. oral gavage): 5 days
- Day on which normal levels of absolute neutrophil counts (ANC) were reached ([3]; 5 μg/b.i.d. oral gavage): 5 days
- neutrophil recovery versus saline treated mice ([3]; 5 μg/b.i.d. s.c.): accelerated
- neutrophil recovery versus saline treated mice ([3]; 10 μg/b.i.d. s.c.): accelerated
- neutrophil recovery versus saline treated mice ([3]; 20 μg/b.i.d. s.c.): accelerated
- rate of neutrophil recovery with additional administration for 2 or 3 days ([3]; gavage b.i.d. for 2 or 3 days starting Day 3): increased the rate of recovery even further
- reconstitution of neutrophils after one day of administration ([3]; gavage b.i.d. for 1 day starting Day 3 (5, 2 or 1 μg/b.i.d.)): accelerated reconstitution of neutrophils over saline treated animals
- rate of neutrophil recovery or ANC with 4 or 5 days versus 3 day administration ([3]; gavage b.i.d., total of 4 or 5 days): does not significantly increase
- effect of additional administration on Days 5, 6 and 7 on ANC ([3]; oral gavage b.i.d.): caused a further increase in ANC
- neutrophil recovery, twice daily versus once per day administration ([3]; s.c., five day period from Day 3, both doses tested): faster rate of neutrophil recovery to higher neutrophil levels
- number of 4 and 5 week LTC-ICs ([4]; CD34+ cells from apheresed peripheral blood or umbilical cord blood, 30 days on irradiated stromal cells): increased
- growth of very early progenitor cells in LTC assays ([4]; all three cell sources (bone marrow, apheresed peripheral blood, umbilical cord blood), LTC-ICs at 4, 5 and 6 weeks): significantly increased
- number of clonogeneic progenitors able to form colonies in semi-solid medium ([4]; human bone marrow culture, 4 week LTC assay): increased, in a dose dependent manner

B1: G-CSF: granulocyte colony stimulating factor, currently used to accelerate neutrophil recovery in cancer patients undergoing chemotherapy (protein, UniProt P09919 31-207, looked up)
Granulocyte …: TPLGPASSLPQSFLLKCLEQVRKIQGDGAALQEKLVSECATYKLCHPEELVLLGHSLGIPWAPLSSCPSQALQLAGCLSQLHSGLFLYQGLLQALEGISPELGPTLDTLQLDVADFATTIWQQMEELGMAPALQPTQGAMPAFASAFQRRAGGVLVASHLQSFLEVSYRVLRHLAQP
- effect on growth of early human hematopoietic progenitor cells [5]: not affected
- ANC after treatment was stopped ([3]; 0.04 μg/b.i.d. s.c. for 5 days): decreased to normal counts by Day 13
- neutrophil regeneration during the treatment period, PT-100 versus G-CSF ([3]; 0.04 μg/b.i.d. subcutaneous injections, 5 consecutive days from Day 3): stimulated neutrophil regeneration to a similar level
- CFU formation in the 2 week semi-solid assay [6]: stimulate CFU formation

Reference: patent publication US7067489B2, “Hematopoietic stimulation” (Point Therapeutics, Inc., priority 1998, dated 2006)
